Source: patent US20120045523A1, “COMBINATION OF A TLR3 LIGAND AND A CHEMOTHERAPY AGENT WHICH ACTS ON THE INTRINSIC "APOPTOSIS" PATHWAY IN THE TREATMENT OF CANCER” (UNIVERSITE CLAUDE BERNARD LYON I, priority 2008, published 2012)
Like-named read-outs stand apart in the source and are kept apart here.

Legend:
NCI-H1703 cells [1] = test: Number of living cells (MTS, CellTiter 96 AQueous One) after chemotherapy and/or poly(I:C); assay type: cell-based, human; conditions: for IC50 / CI (combination index) / nature of interaction with poly(I:C), from CI / reduction of the number of living cells: NCI-H1703; for CI (combination index): agent in combination with poly(I:C), average CI; for nature of interaction with poly(I:C), from CI: combination with poly(I:C); for reduction of the number of living cells: FIG. 1A; for cytotoxicity at 4 µM: NCI-H1703, NCI-H1703, FIG. 1B, read-out: loss of viable cells
NCI-H292 cells [2] = test: as above; conditions: for CI (combination index): agent in combination with poly(I:C), average CI; for nature of interaction with poly(I:C), from CI: combination with poly(I:C)
Protocol: NCI-H292 and NCI-H1703 are squamous cell lung cancer cell lines obtained from the American Type Culture Collection (ATCC). The cells are cultured in 100 mm-diameter dishes in complete RPMI 1640 medium with Glutabio (Eurobio Laboratories, Ulis, France) supplemented with 10% fetal calf serum (FCS) (Invitrogen, Cergy Pontoise, France) and containing 100 U/ml of penicillin (Invitrogen, Cergy Pontoise, France), 0.1 mg/ml of streptomycin (Invitrogen, Cergy Pontoise, France), 1 mM of sodium pyruvate (Invitrogen, Cergy Pontoise, France), 10 μM of HEPES (Jacques Boy Biotechnology Institute, Rheims, France). These cells are maintained at 37° C. in an atmosphere of 5% CO2.
Cells were inoculated in 96-well plates at a concentration of 5000 cells in 100 μl of complete medium per well. […] After 2 h of incubation at 37° C., the culture medium was aspirated and replaced with 100 μl of complete medium containing decreasing concentrations of poly(I:C) (100 μg/ml, 20 μg/ml, 4 μg/ml, 0.8 μg/ml); the cells were then cultured for 70 h. Each treatment condition was carried out in duplicate. The results are expressed as the relative number of viable cells in relation to the untreated control cultures.
The analysis was carried out using the CellTiter 96° AQueous One Solution Cell Proliferation Assay kit (Promega, Charbonnière, France) according to the manufacturer's instructions. Briefly, 20 μl of MTS was added to the culture medium of each well. The cells were placed in an incubator for 2 h at 37° C. Absorbance at 490 nm was analyzed using a spectrophotometer (Multiskan® EX; Thermo Fisher Scientific). A second measurement at 690 nm was made to exclude nonspecific absorbance. The baseline optical density (blank) represents the average of three wells containing the culture medium alone and was subtracted from the recorded values. Each value represents the average OD of the duplicates. The results are expressed as relative OD values in relation to the untreated control cultures.
The 50% inhibitory concentrations (IC50s), defined as the concentrations necessary to obtain 50% fewer cells than the untreated control after culture, were determined for each molecule used alone or in combination. The IC50s represent the averages of all the experiments performed. To mathematically determine the nature of the interaction between the two molecules, two complementary methods were used: calculation of the combination index (CI) (Chou et al.: Quantitative analysis of dose-effect relationships: the combined effects of multiple drugs or enzyme inhibitors, Adv Enzyme Regul 1984, 22:27-55) and construction of an isobologram (Steel et al.: Exploitable mechanisms in combined radiotherapy-chemotherapy: the concept of additivity, Int J Radiat Oncol Biol Phys 1979, 5:85-91).
The IC50 chemotherapy unit was homogenized to μg/ml. Together, all of these IC50s can be used to calculate combination indexes (CIs), defined by the equation (IC50(chemotherapy/poly(I:C))/IC50(chemotherapy))+(IC50(poly(I:C)/chemotherapy))/IC50(poly(I:C)))+(IC50(chemotherapy/poly(I:C))×IC50(poly(I:C)/chemotherapy))/(IC50(chemotherapy)×IC50(poly(I:C)))), where IC50 (chemotherapy) and IC50(poly(I:C)) respectively represent IC50s of chemotherapy and of poly(I:C) used alone, and IC50(chemotherapy/poly(I:C)) and IC50(poly(I:C)/chemotherapy) respectively represent IC50s of chemotherapy and poly(I:C) used in combination. The average of all the CIs is calculated in order to obtain the average CI that determines the nature of the interaction between the two molecules, according to its value: a CI of 0.1 to 0.9 indicates synergy; a CI of 0.9 to 1.1 indicates additivity; a CI of 1.1 to 10 indicates antagonism.
To build the isobolograms, the abscissa and the ordinate represent the IC50s of poly (I:C) and of the chemotherapeutic agent, respectively. The IC50 of poly(I:C) used alone is plotted on the x-axis and the IC50 of the chemotherapeutic agent used alone is plotted on the y-axis.

NCI-H1703 cells [3] = test: Viability of cells cultured 24 h with poly(I:C) and wortmannin; assay type: cell-based, human
Protocol: Similarly, a study was undertaken to determine the viability of cells of the NCI-H1703 human squamous cell lung cancer cell line cultured for 24 h in the presence of TLR3 ligand (poly(I:C), 100 μg/ml) at various concentrations (0 μM, 0.1 μM and 1.0 μM) of wortmannin, a specific PI3 kinase inhibitor.
In the same way, a study was undertaken to determine the percentage of cells of the NCI-H1703 human squamous cell lung cancer cell line in apoptosis (FACS analysis after labeling with annexin V-FITC/propidium iodide) after culture for 24 h in the presence of TLR3 ligand (poly(I:C), 100 μg/ml) with various concentrations (0 μM, 0.1 μM and 1.0 μM) of specific PI3 kinase inhibitor, wortmannin (WM). […] Moreover, the synergy is strong: with 1 μM wortmannin alone, 6% fewer living cells are observed after 24 h; with 100 μg/ml poly(I:C) alone, 26% fewer living cells are observed after 24 h; when both molecules are used in combination at these same concentrations, however, 71% fewer living cells are observed after 24 h.

TLR3 = test: Apoptosis induced by TLR3 ligands, with siRNA inhibition of receptors; assay type: cell-based
Description: “Specific TLR3 ligand” refers to a ligand that is recognized only by the TLR3 membrane receptor, and not by intracellular receptors such as RIG-I, MDA-5 and PKR. Examples of such a ligand includes the ligand poly(A:U) or specific synthetic double-stranded RNA, in contrast with poly(I:C) whose activity is based not only on its interaction with TLR3 but also by intracellular receptors, whereas poly(A:U) acts specifically on TLR3.

NCI-H1703 cells [4] = test: Annexin V-FITC/propidium iodide labeling, flow cytometry (apoptosis); assay type: cell-based, human; conditions: for effect of 2 h exposure to agent before poly(I:C) on percentage of apoptotic cells: NCIH-1703, annexin V after 24 h, concentrations at IC50, FIG. 4
Description: (§1) The duplexes of control small interfering RNA (siRNA; Dharmacon) and siRNA specific for caspase 8 and caspase 9 (Qiagen) used are as follows: 1) control: ON-TARGETplus siCONTROL Non-Targeting siRNA #3; caspase 8 sense 5′-r(GAG UCU GUG CCC AAA UCA A)dTdT-3′, caspase 8 antisense 5′-r(UUG AUU UGG GCA CAG ACU C)dTdT-3′; caspase 9 sense 5′-r(GAG UGG CUC CUG GUA CGU U)dTdT-3′, caspase 9 antisense 5′-r(AAC GUA CCA GGA GCC ACU C)dTdT-3′. The siRNAs were transfected by the HiPerFect (Qiagen) transfection reagent according to the manufacturer's recommendations. Briefly, NCI-H1703 or NCI-H292 cells are cultured in 100 mm dishes, dislodged by trypsin, placed in 24-well plates at a concentration of 50,000 cells in 400 μl of medium per well and incubated at 37° C. during preparation of the mixes. Mixes for each well of a 24-well plate are prepared as follows: the siRNA duplexes are diluted in 100 μl of serum-free and antibiotic-free culture medium, 3 μl of HiPerFect is added, and then the solution is vortexed and incubated for 5-10 min at room temperature. 100 μl of mix is then added drop by drop to the cells and the mixture is homogenized by shaking the plate. The culture medium is changed the following day. The final siRNA concentration is 5 nM and treatment with poly(I:C) begins 72 h after transfection. For these conditions, the effectiveness of caspase 8 and caspase 9 siRNAs in decreasing the level of expression of caspase 8 and caspase 9 proteins, respectively, were measured by western blot, and reaches roughly 85% for caspase 8 siRNA and 75% for caspase 9 siRNA.
In relation to the mechanism of reduction of the number of living cells, the percentage of cells labeled with annexin V after culture after treatment with poly(I:C) was determined by flow cytometry. […] Seventy-two hours after transfection of the control (sictrl), caspase (sicasp8), caspase 9 (sicasp9) or caspase 8+caspase 9 (sicasp8+9) siRNAs, NCI-H1703 cells are treated with 100 μg/ml of poly(I:C) for 24 h or are not treated. The percentage of annexin V-positive cells is measured by flow cytometry. The results presented are the average of three experiments carried out independently. Error Bar, ±SE.
Poly(I:C) induces apoptosis of NSCLC NCIH-1703 and NCIH-292 cell lines. To determine whether the greater reduction in the number of cells alive after treatment with the combination of poly(I:C) and cisplatin or etoposide resulted at least partially from an increase in apoptosis, the cells were labeled with annexin V after 24 h of culture as described in the “Materials and methods” section above.

NCI-H292 cells [5] = test: as above; assay type: cell-based, human; conditions: NCIH-292; annexin V after 24 h; concentrations at IC50; FIG. 4
Description: as §1, with “100 μl of mix is then added drop by drop to the cells and the mixture is homogenized by shaking the plate. The culture medium is changed the following day. The final siRNA concentration is 5 nM and treatment with poly(I:C) begins 72 h after transfection.” left out, “siRNA. […]” for “siRNA.”

[6] = Homo sapiens, chemotherapeutic agent used alone, 2 h exposure, then 70 h culture, read-out: IC50
[7] = chemotherapeutic agent used alone, 2 h exposure, then 70 h culture, read-out: IC50
[8] = NCI-H292, chemotherapeutic agent used alone, 2 h exposure, then 70 h culture

Compound	IC50 (NCI-H1703 cells [1]; [6]) [µM]	CI (combination index) (NCI-H1703 cells [1])	nature of interaction with poly(I:C), from CI (NCI-H1703 cells [1])	IC50 (NCI-H292 cells [2]; Homo sapiens, NCI-H292) [µM]	CI (combination index) (NCI-H292 cells [2]; NCI-H292)	nature of interaction with poly(I:C), from CI (NCI-H292 cells [2]; NCI-H292)	further results
Nc1ccn([C@@H]2O[C@H](CO)[C@@H](O)C2(F)F)c(=O)n1 [Gemcitabine, gemcitabine]	0.9	1.0 ± 0.07	additivity without synergy	0.6	1.3 ± 0.24	antagonism	–
CC(=O)O[C@@]12CO[C@@H]1C[C@H](O)[C@@]1(C)C(=O)[C@H](O)C3=C(C)[C@@H](OC(=O)[C@H](O)[C@@H](NC(=O)OC(C)(C)C)c4ccccc4)C[C@@](O)([C@@H](OC(=O)c4ccccc4)[C@H]21)C3(C)C [Docetaxel, docetaxel]	–	–	–	10.6	0.68 ± 0.2	moderate synergy	–
COC[C@H]1OC(=O)c2coc3c2[C@@]1(C)C1=C(C3=O)[C@@H]2CCC(=O)[C@@]2(C)C[C@H]1OC(C)=O [wortmannin]	–	–	–	–	–	–	fewer living cells (NCI-H1703 cells [3]; 1 μM wortmannin + 100 μg/ml poly(I:C) in combination): 71%; fewer living cells (NCI-H1703 cells [3]; 1 μM wortmannin alone): 6%
polyadenylic-polyuridylic acid [poly(A:U)]	–	–	–	–	–	–	induction of apoptosis (TLR3; cells sensitive to poly(I:C)): triggers apoptosis
polyinosinic-polycytidylic acid [poly(I:C)]	–	–	–	–	–	–	reduction of the number of living cells (NCI-H1703 cells [1]; poly(I:C) 4 μg/ml after pre-incubation for 2 h with 20 μM etoposide): ~70%; reduction of the number of living cells (NCI-H1703 cells [1]; poly(I:C) alone 4 μg/ml): ~35%; IC50 (NCI-H1703 cells [1]; poly(I:C) used alone, 50% fewer cells than untreated control): 19.9 µg/mL; fraction of cells in apoptosis (annexin V-positive) (NCI-H1703 cells [4]; NCI-H1703, 100 μg/ml poly(I:C), 24 h, 11% in control wells, FIG. 2): ⅓; percentage of apoptotic cells (annexin V-positive) (NCI-H1703 cells [4]; NCI-H1703, 100 μg/ml poly(I:C), 24 h, caspase 8 expression inhibited by siRNA): ~20%; effect of suppression of caspase 9 expression on poly(I:C)-induced apoptosis (NCI-H1703 cells [4]; NCI-H1703, 100 μg/ml poly(I:C), 24 h, caspase 9 siRNA): no significant effect; fewer living cells (NCI-H1703 cells [3]; 100 μg/ml poly(I:C) alone): 26%; effect of siRNA inhibition of RIG-I, MDA-5 and PKR expression on poly(I:C) apoptotic activity (TLR3; siRNA against RIG-I, MDA-5, PKR): has no effect; effect of siRNA inhibition of TLR3 or TRIF on poly(I:C)-induced apoptosis (TLR3; siRNA against TLR3 or TRIF): inhibits apoptosis; IC50 (NCI-H292 cells [2]; NCI-H292, poly(I:C) used alone, 50% fewer cells than untreated control): 14.3 µg/mL
CC(=O)O[C@H]1C(=O)[C@@]2(C)[C@H]([C@H](OC(=O)c3ccccc3)[C@]3(O)C[C@H](OC(=O)[C@H](O)[C@@H](NC(=O)c4ccccc4)c4ccccc4)C(C)=C1C3(C)C)[C@]1(OC(C)=O)CO[C@@H]1C[C@@H]2O [Paclitaxel, paclitaxel]	0.12	0.83 ± 0.012	moderate synergy	0.21	0.71 ± 0.0064	moderate synergy	–
O=C1[O][Pt]2([NH][C@@H]3CCCC[C@H]3[NH]2)[O]C1=O [Oxaliplatin, oxaliplatin]	–	–	strong synergy	–	–	strong synergy	IC50 (NCI-H1703 cells [1]; [7]): 170 µM; IC50 (NCI-H292 cells [2]; [8]): 123 µM
COc1cc([C@@H]2c3cc4c(cc3[C@@H](O[C@@H]3O[C@@H]5CO[C@@H](C)O[C@H]5[C@H](O)[C@H]3O)[C@H]3COC(=O)[C@H]23)OCO4)cc(OC)c1O [Etoposide, etoposide]	32.7	0.59 ± 0.06	strong synergy	18.7	0.68 ± 0.11	strong synergy	cytotoxicity at 4 µM (NCI-H1703 cells [1]; Homo sapiens, etoposide 4 μM, then addition of 60 μg/ml poly(I:C)): ~60%; cytotoxicity at 4 µM (NCI-H1703 cells [1]; Homo sapiens, etoposide alone 4 μM): ~25%; effect of 2 h exposure to agent before poly(I:C) on percentage of apoptotic cells (NCI-H1703 cells [4]): significant additive effect; effect of 2 h exposure to agent before poly(I:C) on percentage of apoptotic cells (NCI-H292 cells [5]): significant additive effect; IC50 (NCI-H292 cells [2]; Homo sapiens, NCI-H292, read-out: concentration of etoposide in combination that decreases living cells by 50%): ~8 µM
O=c1[nH]cc(F)c(=O)[nH]1 [5-Fluouracile, 5-fluorouracil]	–	–	–	133	0.78 ± 0.09	moderate synergy	–
N.N.[Cl][Pt][Cl] [Cisplatin, cisplatin]	–	0.62 ± 0.03	strong synergy	–	0.50 ± 0.08	strong synergy	IC50 (NCI-H1703 cells [1]; [7]): 1.1 µM; effect of 2 h exposure to agent before poly(I:C) on percentage of apoptotic cells (NCI-H1703 cells [4]): increases the percentage of apoptotic cells; effect of 2 h exposure to agent before poly(I:C) on percentage of apoptotic cells (NCI-H292 cells [5]): statistically significant only for the NCIH-292 cell line; IC50 (NCI-H292 cells [2]; [8]): 3.4 µM
COc1cccc2c1C(=O)c1c(O)c3c(c(O)c1C2=O)C[C@@](O)(C(=O)CO)C[C@@H]3O[C@H]1C[C@H](N)[C@H](O)[C@H](C)O1 [Doxorubicin, doxorubicin]	3.73	0.72 ± 0.06	strong synergy	1.03	0.62 ± 0.08	strong synergy	–
